Test results from article PMC5618429, “Kempopeptin C, a Novel Marine-Derived Serine Protease Inhibitor Targeting Invasive Breast Cancer” (Marine Drugs, 2017).

Target: T1, trypsin from porcine pancreas (Sus scrofa, UniProt P00761)
T1 construct: purchased Sigma T0303; host or cells: porcine pancreas
Assay: Trypsin inhibition assay
Assay type: biochemical
Details: mean ± SD, n = 3; 30-min preincubation; read-out: IC50 against trypsin
Protocol: The trypsin inhibition assay was carried out at room temperature by incubating 10 µL of trypsin from porcine pancreas (T0303, Sigma, St. Louis, MO, USA) (100 µM prepared in assay buffer) with 39 µL of assay buffer (50 mM Tris-HCl, 100 mM NaCl, 1 mM CaCl2; pH 7.8) in the presence of 1 µL of different concentrations of inhibitors (2 and 3; half log dilutions prepared in DMSO) or the solvent control. After a 30-min incubation time, 50 µL of the 1.5 mM substrate: Nα-benzoyl-DL-arginine-4-nitroanilide (prepared as 2 mM stock solution in DMF and further diluted to 1.5 mM in assay buffer) were added to each well. The reaction was monitored by measuring the absorbance at 405 nm every 30 s for 30 min using SpectraMax M5 plate reader (Molecular Devices, Sunnyvale, CA, USA).

T1 sequence (P00761 9-231): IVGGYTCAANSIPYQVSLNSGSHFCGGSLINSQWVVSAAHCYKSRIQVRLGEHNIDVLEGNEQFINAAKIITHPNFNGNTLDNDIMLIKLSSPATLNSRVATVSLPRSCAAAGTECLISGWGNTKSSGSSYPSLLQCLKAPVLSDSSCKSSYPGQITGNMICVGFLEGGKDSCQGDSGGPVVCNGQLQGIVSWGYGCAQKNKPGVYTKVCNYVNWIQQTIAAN

With `CCCC(=O)NC(C(=O)NC1C(=O)NC(CCCCN)C(=O)NC2CCC(O)N(C2=O)C(C(C)CC)C(=O)N(C)C(Cc2ccc(OC)c(Cl)c2)C(=O)NC(C(C)C)C(=O)OC1C)C(C)C` (stereo not shown) [Kempopeptin C, kempopeptin C] the IC50 was 190 ± 50 nM.
